# Assay results from PubChem BioAssay (NCI).
#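 Tested at 5 concentrations; 48 h exposure; 96-well plates; endpoints linearly interpolated, else capped at highest concentration. GI50: concentration for 50% inhibition of growth. The concentration for full growth arrest is given as TGI.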
# Experiments:
# Assay in all cases: DTP human tumour cell line panel, 48 h
# [1] = test system: SK-OV-3 ovarian
# [2] = test system: HCT-116 colon
# [3] = test system: SNB-19 CNS
# [4] = test system: SK-MEL-5 melanoma
# [5] = test system: SW-620 colon
# [6] = test system: OVCAR-3 ovarian
# [7] = test system: HS 578T breast
# [8] = test system: M14 melanoma
# [9] = test system: NCI-H460 lung
# [10] = test system: 786-0 renal
# [11] = test system: NCI/ADR-RES ovarian
# [12] = test system: K-562 leukemia
# [13] = test system: UO-31 renal
# [14] = test system: MDA-N
# [15] = test system: MALME-3M melanoma
# [16] = test system: HCC-2998 colon
# [17] = test system: IGROV1 ovarian
# [18] = test system: NCI-H522 lung
# [19] = test system: HOP-62 NSCLC
# [20] = test system: OVCAR-5 ovarian
# [21] = test system: MCF7 breast
# [22] = test system: MDA-MB-231 breast
# [23] = test system: SF-539 CNS
# [24] = test system: OVCAR-4 ovarian
# [25] = test system: PC-3 prostate
# [26] = test system: SF-268 CNS
# [27] = test system: CAKI-1 renal
# [28] = test system: HT29 colon
# [29] = test system: ACHN renal
# [30] = test system: U251 CNS
# [31] = test system: T-47D breast
# [32] = test system: NCI-H226 lung
# [33] = test system: NCI-H23 lung
# [34] = test system: CCRF-CEM leukemia
# [35] = test system: A549 NSCLC
# [36] = test system: HCT-15 colon
# [37] = test system: SF-295 CNS
# [38] = test system: UACC-257 melanoma
# [39] = test system: MOLT-4 leukemia
# [40] = test system: A498 renal
# [41] = test system: DU-145 prostate
# [42] = test system: EKVX NSCLC
# [43] = test system: TK-10 renal
# [44] = test system: KM12 colon
# [45] = test system: LOX IMVI melanoma
# [46] = test system: RPMI-8226 leukemia
# [47] = test system: SNB-75 CNS
# [48] = test system: SR leukemia
# [49] = test system: HOP-92 NSCLC
# [50] = test system: UACC-62 melanoma
# [51] = test system: SN12C renal
# [52] = test system: BT-549 breast
# [53] = test system: SK-MEL-28 melanoma
# [54] = test system: HL-60(TB) leukemia
# [55] = test system: OVCAR-8 ovarian
# [56] = test system: RXF 393 renal
# [57] = test system: COLO 205 colon
# [58] = test system: SK-MEL-2 melanoma
# [59] = test system: MDA-MB-435
smiles,measurement,setting,value
CC(C)[C@H](O)C(=O)N[C@H]1Cc2ccc3c(c2)[C@]24C5=C(N=C(O5)[C@H](C(C)C)NC1=O)c1nc(Cl)c(o1)-c1c(Cl)[nH]c5cccc(c15)-c1cccc2c1N[C@H]4O3,TGI,[1],> 10 µM
same,GI50,[2],< 0.001 µM
same,GI50,[3],< 0.001 µM
same,GI50,[4],< 0.001 µM
same,GI50,[5],0.0017 µM
same,TGI,[5],> 10 µM
same,GI50,[6],< 0.001 µM
same,TGI,[6],0.00747 µM
same,TGI,[7],> 10 µM
same,GI50,[8],0.0012 µM
same,TGI,[8],> 10 µM
same,GI50,[9],< 0.001 µM
same,TGI,[9],1.21 µM
same,GI50,[10],0.00279 µM
same,TGI,[10],2.77 µM
same,TGI,[11],3.22 µM
same,GI50,[12],< 0.001 µM
same,TGI,[12],> 10 µM
same,TGI,[13],> 10 µM
same,TGI,[14],0.00429 µM
same,TGI,[15],0.0526 µM
same,GI50,[16],< 0.001 µM
same,GI50,[17],< 0.001 µM
same,TGI,[17],> 10 µM
same,TGI,[18],0.00562 µM
same,TGI,[19],> 10 µM
same,GI50,[20],4.26 µM
same,TGI,[20],> 10 µM
same,GI50,[21],< 0.001 µM
same,TGI,[21],> 10 µM
same,GI50,[22],0.00178 µM
same,TGI,[23],0.083 µM
same,TGI,[24],> 10 µM
same,GI50,[25],< 0.001 µM
same,TGI,[25],> 10 µM
same,GI50,[26],< 0.001 µM
same,TGI,[26],7.32 µM
same,GI50,[27],0.00468 µM
same,TGI,[27],3.29 µM
same,GI50,[28],< 0.001 µM
same,TGI,[28],0.183 µM
same,TGI,[29],5.3 µM
same,GI50,[30],< 0.001 µM
same,TGI,[31],> 10 µM
same,TGI,[32],0.0273 µM
same,GI50,[33],< 0.001 µM
same,TGI,[33],3.82 µM
same,TGI,[34],0.0277 µM
same,GI50,[35],< 0.001 µM
same,TGI,[35],> 10 µM
same,TGI,[36],> 10 µM
same,GI50,[37],< 0.001 µM
same,TGI,[37],3.87 µM
same,GI50,[38],< 0.001 µM
same,TGI,[38],3.27 µM
same,TGI,[39],> 10 µM
same,TGI,[40],> 10 µM
same,GI50,[41],< 0.001 µM
same,TGI,[41],0.748 µM
same,TGI,[42],> 10 µM
CCOC(=O)c1cn2ncnc(Oc3ccc(NC(=O)NCCN(CC)CC)c(Cl)c3)c2c1C,GI50,[43],2.91 µM
same,TGI,[43],11.1 µM
same,GI50,[44],10.8 µM
same,TGI,[44],49.5 µM
same,GI50,[1],20.7 µM
same,TGI,[1],50.2 µM
same,GI50,[2],2 µM
same,TGI,[2],4.75 µM
same,GI50,[3],10.5 µM
same,TGI,[3],28.1 µM
same,GI50,[4],1.81 µM
same,TGI,[4],3.3 µM
same,GI50,[5],2.1 µM
same,TGI,[5],4.6 µM
same,GI50,[6],8.12 µM
same,TGI,[6],35.8 µM
same,GI50,[7],3.88 µM
same,TGI,[7],21.7 µM
same,GI50,[8],1.89 µM
same,TGI,[8],3.75 µM
same,GI50,[9],9.1 µM
same,TGI,[9],24.4 µM
same,GI50,[10],1.89 µM
same,TGI,[10],3.75 µM
same,GI50,[11],4.26 µM
same,TGI,[11],64.5 µM
same,GI50,[45],1.85 µM
same,TGI,[45],3.55 µM
same,GI50,[46],1.73 µM
same,TGI,[46],3.92 µM
same,GI50,[12],2.01 µM
same,TGI,[12],4.48 µM
same,GI50,[13],1.55 µM
same,TGI,[13],3.19 µM
same,GI50,[15],1.7 µM
same,TGI,[15],3.3 µM
same,GI50,[47],3.14 µM
same,TGI,[47],31.5 µM
same,GI50,[48],1.96 µM
same,TGI,[48],5.15 µM
same,GI50,[16],2.01 µM
same,TGI,[16],4.68 µM
same,GI50,[17],6.71 µM
same,TGI,[17],26.2 µM
same,GI50,[18],2.3 µM
same,TGI,[18],5.92 µM
same,GI50,[19],12 µM
same,TGI,[19],29.5 µM
same,GI50,[49],1.76 µM
same,TGI,[49],6.19 µM
same,GI50,[20],3.97 µM
same,TGI,[20],16.1 µM
same,GI50,[21],2.14 µM
same,TGI,[21],5.21 µM
same,GI50,[22],2.1 µM
same,TGI,[22],4.37 µM
same,GI50,[23],1.76 µM
same,TGI,[23],3.45 µM
same,GI50,[24],12.2 µM
same,TGI,[24],45.5 µM
same,GI50,[25],3.22 µM
same,TGI,[25],15 µM
same,GI50,[26],2.28 µM
same,TGI,[26],6.58 µM
same,GI50,[27],1.9 µM
same,TGI,[27],3.82 µM
same,GI50,[28],2.26 µM
same,TGI,[28],5.45 µM
same,GI50,[29],2.31 µM
same,TGI,[29],5.54 µM
same,GI50,[30],2.38 µM
same,TGI,[30],6.24 µM
same,GI50,[31],2.77 µM
same,TGI,[31],8.72 µM
same,GI50,[50],1.95 µM
same,TGI,[50],3.72 µM
same,GI50,[51],3.34 µM
same,TGI,[51],13.3 µM
same,GI50,[52],4.96 µM
same,TGI,[52],19.5 µM
same,GI50,[32],17.9 µM
same,TGI,[32],> 100 µM
same,GI50,[33],10.4 µM
same,TGI,[33],26 µM
same,GI50,[53],1.69 µM
same,TGI,[53],3.15 µM
same,GI50,[34],2.33 µM
same,TGI,[34],6.73 µM
same,GI50,[35],15.8 µM
same,TGI,[35],40.2 µM
same,GI50,[36],1.84 µM
same,TGI,[36],4.07 µM
same,GI50,[37],2.14 µM
same,TGI,[37],4.71 µM
same,GI50,[54],1.81 µM
same,TGI,[54],4.07 µM
same,GI50,[38],1.89 µM
same,TGI,[38],4.05 µM
same,GI50,[55],5.66 µM
same,TGI,[55],> 100 µM
same,GI50,[56],1.63 µM
same,TGI,[56],3.37 µM
same,GI50,[39],2.36 µM
same,TGI,[39],5.67 µM
same,GI50,[57],2.01 µM
same,TGI,[57],3.78 µM
same,GI50,[40],2.15 µM
same,TGI,[40],8.08 µM
same,GI50,[41],7.1 µM
same,TGI,[41],55.1 µM
same,GI50,[58],2.36 µM
same,TGI,[58],5.38 µM
same,GI50,[59],1.87 µM
same,TGI,[59],3.51 µM
same,GI50,[42],3.79 µM
same,TGI,[42],21.5 µM
